In BindingDB's records for doi:10.1016/j.bmcl.2007.11.068 (Johnson & Johnson Pharmaceutical Research and Development, 2008):

Assays:
[1] = target: T1, Alpha-1B adrenergic receptor (Homo sapiens, UniProt P35368)
T1 sequence (P35368 whole entry): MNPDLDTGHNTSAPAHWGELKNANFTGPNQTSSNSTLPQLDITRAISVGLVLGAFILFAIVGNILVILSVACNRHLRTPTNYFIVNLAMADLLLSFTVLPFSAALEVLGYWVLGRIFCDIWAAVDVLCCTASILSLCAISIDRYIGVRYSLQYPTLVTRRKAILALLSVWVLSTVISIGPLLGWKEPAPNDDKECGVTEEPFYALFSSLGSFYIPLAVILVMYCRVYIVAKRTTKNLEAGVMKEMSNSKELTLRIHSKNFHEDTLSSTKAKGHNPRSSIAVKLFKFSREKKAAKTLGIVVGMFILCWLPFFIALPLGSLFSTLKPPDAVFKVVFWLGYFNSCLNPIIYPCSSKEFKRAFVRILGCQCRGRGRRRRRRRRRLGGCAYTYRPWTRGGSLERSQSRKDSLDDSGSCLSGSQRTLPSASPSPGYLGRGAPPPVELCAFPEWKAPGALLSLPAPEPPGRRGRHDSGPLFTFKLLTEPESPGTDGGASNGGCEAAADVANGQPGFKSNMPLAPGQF

[2] = target: T2, Alpha-1D adrenergic receptor (Homo sapiens, UniProt P25100)
T2 sequence (P25100 whole entry): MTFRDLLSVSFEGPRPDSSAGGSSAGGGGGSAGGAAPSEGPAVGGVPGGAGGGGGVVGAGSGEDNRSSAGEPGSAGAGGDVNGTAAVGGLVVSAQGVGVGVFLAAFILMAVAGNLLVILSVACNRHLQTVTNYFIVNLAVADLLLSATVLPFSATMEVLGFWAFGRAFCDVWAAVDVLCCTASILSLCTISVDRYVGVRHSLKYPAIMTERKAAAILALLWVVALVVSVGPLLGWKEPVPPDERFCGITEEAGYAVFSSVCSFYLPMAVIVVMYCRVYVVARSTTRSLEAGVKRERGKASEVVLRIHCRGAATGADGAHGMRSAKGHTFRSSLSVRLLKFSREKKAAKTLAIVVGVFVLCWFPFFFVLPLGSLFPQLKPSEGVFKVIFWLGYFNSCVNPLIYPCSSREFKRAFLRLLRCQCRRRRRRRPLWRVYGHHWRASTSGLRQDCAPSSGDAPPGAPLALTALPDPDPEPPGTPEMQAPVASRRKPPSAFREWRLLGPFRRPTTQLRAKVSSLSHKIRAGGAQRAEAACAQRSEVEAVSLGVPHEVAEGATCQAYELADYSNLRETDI

Compound: CCOc1ccccc1OCCNC(C)Cc1ccc(OC)c(S(N)(=O)=O)c1 (configuration not stated) [NSC_60147]
- Ki [1]: 2 nM
- Ki [2]: 0.2 nM
